Laboratory results as given in patent US20230085307A1, “PYRIDAZINONE COMPOUND AND HERBICIDE” (NISSAN CHEMICAL CORPORATION, priority 2019, published 2023).

Key:
late watergrass = assay: Test Example 1: herbicidal activity, application before weed generation under submerged conditions (Table 16, symbol A); assay type: in vivo, late watergrass (Echinochloa oryzicola); conditions: 320 g/ha applied herbicide
Summary of the method: (§1)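 Alluvial soil was flooded to 4 cm depth, weed seeds were sown mixed and 2.5-leaf rice seedlings were transplanted. On sowing day, the compound's emulsion, diluted in water to a set dose, was applied to the water surface. Plants grew at 25–30 °C and were scored 0–5 after three weeks.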

Japanese bulrush = assay: Test Example 1: herbicidal activity, application before weed generation under submerged conditions (Table 16, symbol B); assay type: in vivo, Japanese bulrush (Schoenoplectus juncoides); conditions: 320 g/ha applied herbicide
Summary of the method: as §1

oval-leafed pondweed = assay: Test Example 1: herbicidal activity, application before weed generation under submerged conditions (Table 16, symbol C); assay type: in vivo, oval-leafed pondweed (Monochoria vaginalis); conditions: 320 g/ha applied herbicide
Summary of the method: as §1

barnyard grass [1] = assay: Test Example 3: herbicidal effect by foliage application, Wagner pot (Table 18, symbol H); assay type: in vivo, barnyard grass (Echinochloa crus-galli); conditions: 320 g/ha
Summary of the method: (§2)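 Plants were sown in alluvial soil held under 0.1–0.5 cm standing water and grown 14 days in a greenhouse at 25–30 °C. An emulsifiable formulation, water-diluted to the set dose, was then sprayed onto the foliage, and effects were scored three weeks later using previously defined criteria.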

Chinese sprangletop = assay: Test Example 3: herbicidal effect by foliage application, Wagner pot (Table 18, symbol D); assay type: in vivo, chinese sprangletop (Leptochloa chinensis); conditions: 320 g/ha
Summary of the method: as §2

rice flat sedge = assay: Test Example 3: herbicidal effect by foliage application, Wagner pot (Table 18, symbol E); assay type: in vivo, rice flat sedge (Cyperus iria); conditions: 320 g/ha
Summary of the method: as §2

southern crabgrass = assay: Test Example 5: herbicidal effect by foliage application, plastic box (Table 20, symbol F); assay type: in vivo, southern crabgrass (Digitaria ciliaris); conditions: foliage application; for F: southern crabgrass, herbicidal effect: AAH 320 g/ha, three weeks after application; for herbicidal effect on F: southern crabgrass: 320 g/ha, evaluated three weeks after application
Summary of the method: (§3)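 Foliar spray test: emulsion formulation diluted in water to a set application rate, sprayed onto 14-day-old plants raised in diluvial soil at 25° C to 30° C under glass. Both herbicidal effect and crop effect rated visually three weeks later.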

green foxtail = assay: Test Example 5: herbicidal effect by foliage application, plastic box (Table 20, symbol G); assay type: in vivo, green foxtail (Setaria viridis); conditions: foliage application; for G: green foxtail, herbicidal effect: AAH 320 g/ha, three weeks after application; for herbicidal effect on G: green foxtail: 320 g/ha, evaluated three weeks after application
Summary of the method: as §3

barnyard grass [2] = assay: Test Example 5: herbicidal effect by foliage application, plastic box (Table 20, symbol H); assay type: in vivo, barnyard grass (Echinochloa crus-galli); conditions: foliage application; for H: barnyard grass, herbicidal effect: AAH 320 g/ha, three weeks after application; for herbicidal effect on H: barnyard grass: 320 g/ha, evaluated three weeks after application
Summary of the method: as §3

wild oat = assay: Test Example 5: herbicidal effect by foliage application, plastic box (Table 20, symbol I); assay type: in vivo, wild oat (Avena fatua); conditions: foliage application; for I: wild oat, herbicidal effect: AAH 320 g/ha, three weeks after application; for herbicidal effect on I: wild oat: 320 g/ha, evaluated three weeks after application
Summary of the method: as §3

blackgrass = assay: Test Example 5: herbicidal effect by foliage application, plastic box (Table 20, symbol J); assay type: in vivo, blackgrass (Alopecurus myosuroides); conditions: foliage application; for J: blackgrass, herbicidal effect: AAH 320 g/ha, three weeks after application; for herbicidal effect on J: blackgrass: 320 g/ha, evaluated three weeks after application
Summary of the method: as §3

Italian ryegrass = assay: Test Example 5: herbicidal effect by foliage application, plastic box (Table 20, symbol K); assay type: in vivo, Italian ryegrass (Lolium multiflorum); conditions: foliage application; for K: Italian ryegrass, herbicidal effect: AAH 320 g/ha, three weeks after application; for herbicidal effect on K: Italian ryegrass: 320 g/ha, evaluated three weeks after application
Summary of the method: as §3

windgrass = assay: Test Example 5: herbicidal effect by foliage application, plastic box (Table 20, symbol L); assay type: in vivo, windgrass (Apera spica-venti); conditions: foliage application; for L: windgrass, herbicidal effect: AAH 320 g/ha, three weeks after application; for herbicidal effect on L: windgrass: 320 g/ha, evaluated three weeks after application
Summary of the method: as §3

velvetleaf = assay: Test Example 5: herbicidal effect by foliage application, plastic box (Table 20, symbol M); assay type: in vivo, velvetleaf (Abutilon theophrasti); conditions: foliage application; for M: velvetleaf, herbicidal effect: AAH 320 g/ha, three weeks after application; for herbicidal effect on M: velvetleaf: 320 g/ha, evaluated three weeks after application
Summary of the method: as §3

redroot pigweed = assay: Test Example 5: herbicidal effect by foliage application, plastic box (Table 20, symbol N); assay type: in vivo, redroot pigweed (Amaranthus retroflexus); conditions: foliage application; for N: redroot pigweed, herbicidal effect: AAH 320 g/ha, three weeks after application; for herbicidal effect on N: redroot pigweed: 320 g/ha, evaluated three weeks after application
Summary of the method: as §3

lambsquarters = assay: Test Example 5: herbicidal effect by foliage application, plastic box (Table 20, symbol O); assay type: in vivo, lambsquarters (Chenopodium album); conditions: foliage application; for O: lambsquarters, herbicidal effect: AAH 320 g/ha, three weeks after application; for herbicidal effect on O: lambsquarters: 320 g/ha, evaluated three weeks after application
Summary of the method: as §3

chickweed = assay: Test Example 5: herbicidal effect by foliage application, plastic box (Table 20, symbol P); assay type: in vivo, common chickweed (Stellaria media); conditions: foliage application; for P: chickweed, herbicidal effect: AAH 320 g/ha, three weeks after application; for herbicidal effect on P: chickweed: 320 g/ha, evaluated three weeks after application
Summary of the method: as §3

persian speedwell = assay: Test Example 5: herbicidal effect by foliage application, plastic box (Table 20, symbol R); assay type: in vivo, Persian speedwell (Veronica persica); conditions: foliage application; for R: persian speedwell, herbicidal effect: AAH 320 g/ha, three weeks after application; for herbicidal effect on R: persian speedwell: 320 g/ha, evaluated three weeks after application
Summary of the method: as §3

Structure (SMILES): COc1cn(C)nc1-c1sc2ccccc2c1-c1c(O)c(C)nn(C)c1=O [1-105]
- Herbicidal effect on A: late watergrass (grade 0-5) (late watergrass): 3 (Herbicidal rate of 40% or more and less than 70%)
- Herbicidal effect on B: Japanese bulrush (grade 0-5) (Japanese bulrush): 3 (Herbicidal rate of 40% or more and less than 70%)
- Herbicidal effect on C: oval-leafed pondweed (grade 0-5) (oval-leafed pondweed): 2 (Herbicidal rate of 20% or more and less than 40%)
- herbicidal effect on H (barnyard grass), rating 0-5 (barnyard grass [1]): 4 (Herbicidal rate of 70% or more and less than 90%)
- herbicidal effect on D (Chinese sprangletop), rating 0-5 (Chinese sprangletop): 3 (Herbicidal rate of 40% or more and less than 70%)
- herbicidal effect on E (rice flat sedge), rating 0-5 (rice flat sedge): 4 (Herbicidal rate of 70% or more and less than 90%)
- F: southern crabgrass, herbicidal effect (southern crabgrass): 3 (Herbicidal rate of 40% or more and less than 70%)
- G: green foxtail, herbicidal effect (green foxtail): 3 (Herbicidal rate of 40% or more and less than 70%)
- H: barnyard grass, herbicidal effect (barnyard grass [2]): 1 (Herbicidal rate of 5% or more and less than 20%)
- I: wild oat, herbicidal effect (wild oat): 3 (Herbicidal rate of 40% or more and less than 70%)
- J: blackgrass, herbicidal effect (blackgrass): 0 (Herbicidal rate of 5% or less (almost no effect))
- K: Italian ryegrass, herbicidal effect (Italian ryegrass): 0 (Herbicidal rate of 5% or less (almost no effect))
- L: windgrass, herbicidal effect (windgrass): 4 (Herbicidal rate of 70% or more and less than 90%)
- M: velvetleaf, herbicidal effect (velvetleaf): 3 (Herbicidal rate of 40% or more and less than 70%)
- N: redroot pigweed, herbicidal effect (redroot pigweed): 5 (Herbicidal rate of 90% or more (almost completely withered))
- O: lambsquarters, herbicidal effect (lambsquarters): 4 (Herbicidal rate of 70% or more and less than 90%)
- P: chickweed, herbicidal effect (chickweed): 5 (Herbicidal rate of 90% or more (almost completely withered))
- R: persian speedwell, herbicidal effect (persian speedwell): 4 (Herbicidal rate of 70% or more and less than 90%)

Structure (SMILES): COc1cccc(Cl)c1-c1sc2ccccc2c1-c1c(O)c(C)nn(C)c1=O [1-159]
- Herbicidal effect on A: late watergrass (grade 0-5) (late watergrass): 2 (Herbicidal rate of 20% or more and less than 40%)
- Herbicidal effect on B: Japanese bulrush (grade 0-5) (Japanese bulrush): 0 (Herbicidal rate of 5% or less (almost no effect))
- Herbicidal effect on C: oval-leafed pondweed (grade 0-5) (oval-leafed pondweed): 0 (Herbicidal rate of 5% or less (almost no effect))
- herbicidal effect on H (barnyard grass), rating 0-5 (barnyard grass [1]): 2 (Herbicidal rate of 20% or more and less than 40%)
- herbicidal effect on D (Chinese sprangletop), rating 0-5 (Chinese sprangletop): 0 (Herbicidal rate of 5% or less (almost no effect))
- herbicidal effect on E (rice flat sedge), rating 0-5 (rice flat sedge): 0 (Herbicidal rate of 5% or less (almost no effect))
- F: southern crabgrass, herbicidal effect (southern crabgrass): 0 (Herbicidal rate of 5% or less (almost no effect))
- G: green foxtail, herbicidal effect (green foxtail): 0 (Herbicidal rate of 5% or less (almost no effect))
- H: barnyard grass, herbicidal effect (barnyard grass [2]): 0 (Herbicidal rate of 5% or less (almost no effect))
- I: wild oat, herbicidal effect (wild oat): 0 (Herbicidal rate of 5% or less (almost no effect))
- J: blackgrass, herbicidal effect (blackgrass): 0 (Herbicidal rate of 5% or less (almost no effect))
- K: Italian ryegrass, herbicidal effect (Italian ryegrass): 0 (Herbicidal rate of 5% or less (almost no effect))
- L: windgrass, herbicidal effect (windgrass): 0 (Herbicidal rate of 5% or less (almost no effect))
- M: velvetleaf, herbicidal effect (velvetleaf): 0 (Herbicidal rate of 5% or less (almost no effect))
- N: redroot pigweed, herbicidal effect (redroot pigweed): 0 (Herbicidal rate of 5% or less (almost no effect))
- O: lambsquarters, herbicidal effect (lambsquarters): 0 (Herbicidal rate of 5% or less (almost no effect))
- P: chickweed, herbicidal effect (chickweed): 5 (Herbicidal rate of 90% or more (almost completely withered))
- R: persian speedwell, herbicidal effect (persian speedwell): 5 (Herbicidal rate of 90% or more (almost completely withered))

Structure (SMILES): COCCOCOc1c(C)nn(C)c(=O)c1-c1c(-c2ccc(OCC(=O)OC)cc2)sc2ccc(F)cc12 [2-071]
- Herbicidal effect on A: late watergrass (grade 0-5) (late watergrass): 3 (Herbicidal rate of 40% or more and less than 70%)
- Herbicidal effect on B: Japanese bulrush (grade 0-5) (Japanese bulrush): 0 (Herbicidal rate of 5% or less (almost no effect))
- Herbicidal effect on C: oval-leafed pondweed (grade 0-5) (oval-leafed pondweed): 0 (Herbicidal rate of 5% or less (almost no effect))
- herbicidal effect on H (barnyard grass), rating 0-5 (barnyard grass [1]): 2 (Herbicidal rate of 20% or more and less than 40%)
- herbicidal effect on D (Chinese sprangletop), rating 0-5 (Chinese sprangletop): 3 (Herbicidal rate of 40% or more and less than 70%)
- herbicidal effect on E (rice flat sedge), rating 0-5 (rice flat sedge): 2 (Herbicidal rate of 20% or more and less than 40%)
- herbicidal effect on F: southern crabgrass (southern crabgrass): 0 (Herbicidal rate of 5% or less (almost no effect))
- herbicidal effect on G: green foxtail (green foxtail): 0 (Herbicidal rate of 5% or less (almost no effect))
- herbicidal effect on H: barnyard grass (barnyard grass [2]): 0 (Herbicidal rate of 5% or less (almost no effect))
- herbicidal effect on I: wild oat (wild oat): 0 (Herbicidal rate of 5% or less (almost no effect))
- herbicidal effect on J: blackgrass (blackgrass): 0 (Herbicidal rate of 5% or less (almost no effect))
- herbicidal effect on K: Italian ryegrass (Italian ryegrass): 0 (Herbicidal rate of 5% or less (almost no effect))
- herbicidal effect on L: windgrass (windgrass): 0 (Herbicidal rate of 5% or less (almost no effect))
- herbicidal effect on M: velvetleaf (velvetleaf): 0 (Herbicidal rate of 5% or less (almost no effect))
- herbicidal effect on N: redroot pigweed (redroot pigweed): 4 (Herbicidal rate of 70% or more and less than 90%)
- herbicidal effect on O: lambsquarters (lambsquarters): 3 (Herbicidal rate of 40% or more and less than 70%)
- herbicidal effect on P: chickweed (chickweed): 3 (Herbicidal rate of 40% or more and less than 70%)
- herbicidal effect on R: persian speedwell (persian speedwell): 0 (Herbicidal rate of 5% or less (almost no effect))

Structure (SMILES): CCCC(=O)Oc1c(C)nn(C)c(=O)c1-c1c(-c2ccc(Oc3ccccc3)cc2)sc2ccc(F)cc12 [2-073]
- Herbicidal effect on A: late watergrass (grade 0-5) (late watergrass): 3 (Herbicidal rate of 40% or more and less than 70%)
- Herbicidal effect on B: Japanese bulrush (grade 0-5) (Japanese bulrush): 0 (Herbicidal rate of 5% or less (almost no effect))
- Herbicidal effect on C: oval-leafed pondweed (grade 0-5) (oval-leafed pondweed): 0 (Herbicidal rate of 5% or less (almost no effect))
- herbicidal effect on H (barnyard grass), rating 0-5 (barnyard grass [1]): 4 (Herbicidal rate of 70% or more and less than 90%)
- herbicidal effect on D (Chinese sprangletop), rating 0-5 (Chinese sprangletop): 3 (Herbicidal rate of 40% or more and less than 70%)
- herbicidal effect on E (rice flat sedge), rating 0-5 (rice flat sedge): 3 (Herbicidal rate of 40% or more and less than 70%)
- herbicidal effect on F: southern crabgrass (southern crabgrass): 0 (Herbicidal rate of 5% or less (almost no effect))
- herbicidal effect on G: green foxtail (green foxtail): 2 (Herbicidal rate of 20% or more and less than 40%)
- herbicidal effect on H: barnyard grass (barnyard grass [2]): 1 (Herbicidal rate of 5% or more and less than 20%)
- herbicidal effect on I: wild oat (wild oat): 0 (Herbicidal rate of 5% or less (almost no effect))
- herbicidal effect on J: blackgrass (blackgrass): 0 (Herbicidal rate of 5% or less (almost no effect))
- herbicidal effect on K: Italian ryegrass (Italian ryegrass): 0 (Herbicidal rate of 5% or less (almost no effect))
- herbicidal effect on L: windgrass (windgrass): 0 (Herbicidal rate of 5% or less (almost no effect))
- herbicidal effect on M: velvetleaf (velvetleaf): 3 (Herbicidal rate of 40% or more and less than 70%)
- herbicidal effect on N: redroot pigweed (redroot pigweed): 3 (Herbicidal rate of 40% or more and less than 70%)
- herbicidal effect on O: lambsquarters (lambsquarters): 3 (Herbicidal rate of 40% or more and less than 70%)
- herbicidal effect on P: chickweed (chickweed): 5 (Herbicidal rate of 90% or more (almost completely withered))
- herbicidal effect on R: persian speedwell (persian speedwell): 4 (Herbicidal rate of 70% or more and less than 90%)
